According to PubChem BioAssay (NCI):
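Interpolation was linear, between the two tested concentrations surrounding the appropriate level; five concentrations were tested over 48 hours in 96-well plates. Here, GI50 denotes the concentration required for 50% inhibition of growth. The concentration for full growth arrest is given as TGI.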

Experiments:
Assay in all cases: growth of human tumour cells (NCI), 48 h
[1] = system: NCI-H23 lung
[2] = system: CAKI-1 renal
[3] = system: RPMI-8226 leukemia
[4] = system: KM12 colon
[5] = system: EKVX NSCLC
[6] = system: A549 NSCLC
[7] = system: NCI/ADR-RES ovarian
[8] = system: HL-60(TB) leukemia
[9] = system: NCI-H460 lung
[10] = system: PC-3 prostate
[11] = system: SK-MEL-2 melanoma
[12] = system: HT29 colon
[13] = system: SNB-75 CNS
[14] = system: SR leukemia
[15] = system: HOP-62 NSCLC
[16] = system: SN12C renal
[17] = system: OVCAR-3 ovarian
[18] = system: SK-MEL-5 melanoma
[19] = system: MALME-3M melanoma
[20] = system: UACC-257 melanoma
[21] = system: HOP-92 NSCLC
[22] = system: HCC-2998 colon
[23] = system: 786-0 renal
[24] = system: IGROV1 ovarian
[25] = system: M14 melanoma
[26] = system: HCT-116 colon
[27] = system: MDA-MB-468 breast
[28] = system: SK-OV-3 ovarian
[29] = system: ACHN renal
[30] = system: LOX IMVI melanoma
[31] = system: BT-549 breast
[32] = system: U251 CNS
[33] = system: RXF 393 renal
[34] = system: MDA-MB-435
[35] = system: MOLT-4 leukemia
[36] = system: HCT-15 colon
[37] = system: OVCAR-8 ovarian
[38] = system: HS 578T breast
[39] = system: OVCAR-4 ovarian
[40] = system: UACC-62 melanoma
[41] = system: SNB-19 CNS
[42] = system: NCI-H226 lung
[43] = system: OVCAR-5 ovarian
[44] = system: TK-10 renal
[45] = system: SF-295 CNS
[46] = system: DU-145 prostate
[47] = system: NCI-H522 lung
[48] = system: K-562 leukemia
[49] = system: COLO 205 colon
[50] = system: MDA-MB-231 breast
[51] = system: A498 renal
[52] = system: MCF7 breast
[53] = system: CCRF-CEM leukemia
[54] = system: T-47D breast
[55] = system: UO-31 renal
[56] = system: SW-620 colon
[57] = system: SK-MEL-28 melanoma
[58] = system: SF-268 CNS
[59] = system: SF-539 CNS

Question: How did the GI50 [1] turn out when `COc1ccc(C(C)=C(c2ccc(OCCCN(C)C)cc2)c2ccc(OCCCN(C)C)cc2)cc1` was run?
Answer: 2900 nM

Question: What about the TGI [1] of the same compound?
Answer: 5.88 µM

Question: And the GI50 [2]?
Answer: 2710 nM

Question: What about the TGI [2] of the same compound?
Answer: 5.35 µM

Question: What about the GI50 [3] of the same compound?
Answer: 2180 nM

Question: And the TGI [3]?
Answer: 8.53 µM

Question: What about the GI50 [4] of the same compound?
Answer: 2600 nM

Question: And the TGI [4]?
Answer: 5.5 µM

Question: What about the GI50 [5] of the same compound?
Answer: 2980 nM

Question: What about the TGI [5] of the same compound?
Answer: 5.89 µM

Question: What about the GI50 [6] of the same compound?
Answer: 2990 nM

Question: What about the TGI [6] of the same compound?
Answer: 7.48 µM

Question: What about the GI50 [7] of the same compound?
Answer: 3.09 µM

Question: And the TGI [7]?
Answer: 6.15 µM

Question: And the GI50 [8]?
Answer: 735 nM

Question: What about the TGI [8] of the same compound?
Answer: 3.03 µM

Question: And the GI50 [9]?
Answer: 899 nM

Question: What about the TGI [9] of the same compound?
Answer: 3.43 µM

Question: And the GI50 [10]?
Answer: 2750 nM

Question: And the TGI [10]?
Answer: 6.07 µM

Question: What about the GI50 [11] of the same compound?
Answer: 3.33 µM

Question: And the TGI [11]?
Answer: 6.33 µM

Question: And the GI50 [12]?
Answer: 426 nM

Question: What about the TGI [12] of the same compound?
Answer: 867 nM

Question: What about the GI50 [13] of the same compound?
Answer: 2130 nM

Question: What about the TGI [13] of the same compound?
Answer: 4.66 µM

Question: What about the GI50 [14] of the same compound?
Answer: 523 nM

Question: What about the TGI [14] of the same compound?
Answer: 1730 nM

Question: And the GI50 [15]?
Answer: 3.08 µM

Question: What about the TGI [15] of the same compound?
Answer: 6.17 µM

Question: And the GI50 [16]?
Answer: 2950 nM

Question: And the TGI [16]?
Answer: 5.72 µM

Question: And the GI50 [17]?
Answer: 678 nM

Question: What about the TGI [17] of the same compound?
Answer: 2300 nM

Question: And the GI50 [18]?
Answer: 2570 nM

Question: And the TGI [18]?
Answer: 5.2 µM

Question: And the GI50 [19]?
Answer: 558 nM

Question: And the TGI [19]?
Answer: 1890 nM

Question: And the GI50 [20]?
Answer: 3.27 µM

Question: And the TGI [20]?
Answer: 6.42 µM

Question: What about the GI50 [21] of the same compound?
Answer: 1100 nM

Question: And the TGI [21]?
Answer: 4.27 µM

Question: And the GI50 [22]?
Answer: 2160 nM

Question: And the TGI [22]?
Answer: 4.79 µM

Question: And the GI50 [23]?
Answer: 491 nM

Question: And the TGI [23]?
Answer: 1460 nM

Question: And the GI50 [24]?
Answer: 2960 nM

Question: And the TGI [24]?
Answer: 5.75 µM

Question: What about the GI50 [25] of the same compound?
Answer: 427 nM

Question: And the TGI [25]?
Answer: 930 nM

Question: And the GI50 [26]?
Answer: 795 nM

Question: And the TGI [26]?
Answer: 3.21 µM

Question: And the GI50 [27]?
Answer: 705 nM

Question: And the TGI [27]?
Answer: 3.01 µM

Question: What about the GI50 [28] of the same compound?
Answer: 3.26 µM

Question: What about the TGI [28] of the same compound?
Answer: 6.19 µM

Question: What about the GI50 [29] of the same compound?
Answer: 2620 nM

Question: What about the TGI [29] of the same compound?
Answer: 5.23 µM

Question: And the GI50 [30]?
Answer: 625 nM

Question: And the TGI [30]?
Answer: 2080 nM

Question: What about the GI50 [31] of the same compound?
Answer: 3.2 µM

Question: And the TGI [31]?
Answer: 6.22 µM

Question: What about the GI50 [32] of the same compound?
Answer: 2710 nM

Question: What about the TGI [32] of the same compound?
Answer: 6 µM

Question: And the GI50 [33]?
Answer: 1090 nM

Question: And the TGI [33]?
Answer: 3.92 µM

Question: And the GI50 [34]?
Answer: 537 nM

Question: What about the TGI [34] of the same compound?
Answer: 1830 nM

Question: What about the GI50 [35] of the same compound?
Answer: 1080 nM

Question: And the TGI [35]?
Answer: 4.05 µM

Question: And the GI50 [36]?
Answer: 1090 nM

Question: What about the TGI [36] of the same compound?
Answer: 3.79 µM

Question: What about the GI50 [37] of the same compound?
Answer: 3.62 µM

Question: What about the TGI [37] of the same compound?
Answer: 7.6 µM

Question: What about the GI50 [38] of the same compound?
Answer: 2440 nM

Question: And the TGI [38]?
Answer: 6.22 µM

Question: And the GI50 [39]?
Answer: 2220 nM

Question: What about the TGI [39] of the same compound?
Answer: 5.22 µM

Question: What about the GI50 [40] of the same compound?
Answer: 2970 nM

Question: And the TGI [40]?
Answer: 5.73 µM

Question: What about the GI50 [41] of the same compound?
Answer: 3.2 µM

Question: And the TGI [41]?
Answer: 6.06 µM

Question: And the GI50 [42]?
Answer: 3 µM

Question: And the TGI [42]?
Answer: 6.28 µM

Question: And the GI50 [43]?
Answer: 2820 nM

Question: What about the TGI [43] of the same compound?
Answer: 5.55 µM

Question: What about the GI50 [44] of the same compound?
Answer: 3.38 µM

Question: What about the TGI [44] of the same compound?
Answer: 6.36 µM

Question: What about the GI50 [45] of the same compound?
Answer: 2490 nM

Question: What about the TGI [45] of the same compound?
Answer: 5.29 µM

Question: What about the GI50 [46] of the same compound?
Answer: 2100 nM

Question: And the TGI [46]?
Answer: 4.6 µM

Question: What about the GI50 [47] of the same compound?
Answer: 2420 nM

Question: And the TGI [47]?
Answer: 5.33 µM

Question: What about the GI50 [48] of the same compound?
Answer: 621 nM

Question: What about the TGI [48] of the same compound?
Answer: 5.04 µM

Question: What about the GI50 [49] of the same compound?
Answer: 799 nM

Question: What about the TGI [49] of the same compound?
Answer: 3.08 µM

Question: What about the GI50 [50] of the same compound?
Answer: 1550 nM

Question: And the TGI [50]?
Answer: 4.23 µM

Question: What about the GI50 [51] of the same compound?
Answer: 2730 nM

Question: And the TGI [51]?
Answer: 5.51 µM

Question: And the GI50 [52]?
Answer: 418 nM

Question: What about the TGI [52] of the same compound?
Answer: 3.06 µM

Question: And the GI50 [53]?
Answer: 593 nM

Question: And the TGI [53]?
Answer: 1960 nM

Question: And the GI50 [54]?
Answer: 1570 nM

Question: What about the TGI [54] of the same compound?
Answer: 4.98 µM

Question: What about the GI50 [55] of the same compound?
Answer: 2740 nM

Question: What about the TGI [55] of the same compound?
Answer: 5.4 µM

Question: And the GI50 [56]?
Answer: 982 nM

Question: And the TGI [56]?
Answer: 3.62 µM

Question: And the GI50 [57]?
Answer: 2490 nM

Question: And the TGI [57]?
Answer: 5.07 µM

Question: What about the GI50 [58] of the same compound?
Answer: 2800 nM

Question: What about the TGI [58] of the same compound?
Answer: 5.94 µM

Question: And the GI50 [59]?
Answer: 788 nM

Question: What about the TGI [59] of the same compound?
Answer: 2850 nM
